Data as given in article PMC3437492 (British Journal of Pharmacology, 2012).
Where “and” joins values, the source holds several entries; their conditions need not be identical. Equal entries are not always repeated. Where two headings read alike, the source gives them in different places.

Tests used:
[1] = tested on: NA biosynthesis in P. falciparum-infected erythrocytes; experiment: Effect on [3H]-hypoxanthine incorporation into nucleic acids; format: cell-based; settings: for IC50: Plasmodium falciparum, Erythrocyte
[2] = target: T1, choline/ethanolamine phosphotransferase (CEPT) (Plasmodium falciparum, UniProt C6KTB9)
T1 sequence (C6KTB9 1-391): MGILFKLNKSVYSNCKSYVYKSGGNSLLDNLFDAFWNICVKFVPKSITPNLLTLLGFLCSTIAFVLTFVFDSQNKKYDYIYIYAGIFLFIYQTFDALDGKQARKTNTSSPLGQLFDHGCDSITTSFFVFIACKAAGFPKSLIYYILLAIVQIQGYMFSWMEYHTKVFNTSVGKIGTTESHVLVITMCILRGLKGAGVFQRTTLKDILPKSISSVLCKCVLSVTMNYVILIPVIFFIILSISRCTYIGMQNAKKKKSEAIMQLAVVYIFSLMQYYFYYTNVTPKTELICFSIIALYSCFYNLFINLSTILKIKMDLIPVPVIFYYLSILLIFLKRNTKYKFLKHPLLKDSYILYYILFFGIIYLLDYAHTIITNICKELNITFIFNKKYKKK

normal erythrocytes = experiment: Albitiazolium entry into normal erythrocytes; format: cell-based, human; settings: 30 µM albitiazolium, 8 min, 37°C
choline kinase (CK) [3] = target: T2, choline kinase (CK) (Plasmodium falciparum, UniProt Q8IM71); experiment: biochemical
T2 sequence (Q8IM71 1-440): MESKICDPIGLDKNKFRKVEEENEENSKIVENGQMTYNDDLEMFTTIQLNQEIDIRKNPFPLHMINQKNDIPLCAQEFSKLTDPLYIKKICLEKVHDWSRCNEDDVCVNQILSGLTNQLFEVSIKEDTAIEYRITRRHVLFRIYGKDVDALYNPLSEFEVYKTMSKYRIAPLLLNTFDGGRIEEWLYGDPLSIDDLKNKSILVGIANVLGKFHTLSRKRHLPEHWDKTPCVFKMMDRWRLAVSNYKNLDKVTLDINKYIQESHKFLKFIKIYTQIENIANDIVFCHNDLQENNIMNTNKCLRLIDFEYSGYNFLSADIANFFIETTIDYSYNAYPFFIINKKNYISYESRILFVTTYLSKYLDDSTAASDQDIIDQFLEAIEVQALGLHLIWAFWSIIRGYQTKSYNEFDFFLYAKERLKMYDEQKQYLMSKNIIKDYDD

P. falciparum 3D7 strain = format: cell-based
[4] = tested on: parasite choline transporter (poly-specific cation transporter); experiment: Choline entry into isolated; format: cell-based, P. falciparum
P. falciparum-IRBC = settings: ref Wein et al., cited from earlier work
[5] = tested on: P. falciparum asexual blood stages; settings: ref Vial et al., 2004; cited from earlier work
[6] = tested on: parasite poly-specific cation carrier; settings: for Type of inhibition: inhibition of albitiazolium entry
[7] = target: CTP:phosphocholine cytidylyltransferase (CCT) (Plasmodium falciparum, UniProt Q8IEE9); experiment: CCT assay; format: biochemical
choline kinase (CK) [8] = target: T2, choline kinase (CK)
[9] = tested on: P. falciparum-infected erythrocytes; experiment: Total choline entry into P. falciparum-infected erythrocytes; format: cell-based; settings: no furosemide
human plasma-proteins = settings: at 20 ng·mL^−1; no saturation until 5000 ng·mL^−1; ref unpublished observations; cited from earlier work
[10] = tested on: erythrocyte choline carrier; experiment: Carrier-mediated choline entry into IRBC in the presence of 150 µM furosemide; format: cell-based, human
[11] = target: T1, choline/ethanolamine phosphotransferase (CEPT); experiment: biochemical; settings: 0.5 h, read-out: Concentration for complete inhibition
[12] = tested on: PE biosynthesis in P. falciparum-infected erythrocytes; experiment: Effect on [3H]-ethanolamine incorporation into PL; format: cell-based; settings: for IC50: read-out: PE50
[13] = tested on: furosemide-sensitive NPP of P. falciparum IRBC; experiment: Albitiazolium entry into P. falciparum-infected erythrocytes; format: cell-based
[14] = tested on: erythrocyte choline carrier; settings: normal erythrocytes, 37°C
[15] = substrate: C[N+](C)(C)CCO; experiment: cells, lysate or membranes named; settings: other: CK; saturating ATP; pH 7.9

Chain of CTP:phosphocholine cytidylyltransferase (CCT) (Q8IEE9 1-896): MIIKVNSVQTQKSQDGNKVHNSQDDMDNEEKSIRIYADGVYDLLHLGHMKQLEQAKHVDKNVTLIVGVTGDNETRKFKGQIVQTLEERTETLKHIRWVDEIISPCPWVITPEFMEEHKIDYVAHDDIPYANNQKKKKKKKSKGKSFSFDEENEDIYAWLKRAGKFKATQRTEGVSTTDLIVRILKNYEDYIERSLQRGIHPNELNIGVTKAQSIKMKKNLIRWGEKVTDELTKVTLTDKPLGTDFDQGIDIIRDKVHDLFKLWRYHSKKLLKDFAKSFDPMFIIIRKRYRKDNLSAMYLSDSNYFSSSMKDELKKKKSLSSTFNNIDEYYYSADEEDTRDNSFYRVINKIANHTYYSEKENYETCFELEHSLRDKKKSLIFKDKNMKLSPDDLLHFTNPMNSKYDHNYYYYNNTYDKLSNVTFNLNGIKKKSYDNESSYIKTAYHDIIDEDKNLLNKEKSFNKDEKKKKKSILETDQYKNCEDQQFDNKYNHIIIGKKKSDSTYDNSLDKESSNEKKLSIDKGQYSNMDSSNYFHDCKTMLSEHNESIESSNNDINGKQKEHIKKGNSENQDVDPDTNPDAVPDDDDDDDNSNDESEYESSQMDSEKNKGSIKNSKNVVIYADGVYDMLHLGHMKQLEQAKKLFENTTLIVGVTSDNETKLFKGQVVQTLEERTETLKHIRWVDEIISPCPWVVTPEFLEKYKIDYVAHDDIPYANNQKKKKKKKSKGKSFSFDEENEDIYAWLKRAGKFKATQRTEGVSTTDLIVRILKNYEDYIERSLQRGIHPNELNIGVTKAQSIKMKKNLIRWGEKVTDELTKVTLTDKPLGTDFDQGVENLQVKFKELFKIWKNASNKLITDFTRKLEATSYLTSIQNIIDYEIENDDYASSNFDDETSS

With `N=C(N)c1ccc(OCCCCCOc2ccc(C(=N)N)cc2)cc1` [pentamidine, reference compound] the “Effect on NA and PC synthesis” value ([1]; same conditions as albitiazolium, data not shown) was “affected primarily NA synthesis and not PC synthesis”.

`C[N+](C)(C)CCOP(=O)(O)OP(=O)([O-])OC[C@H]1O[C@@H](n2ccc(N)nc2=O)[C@H](O)[C@@H]1O` [CDP–choline] showed a Vmax [2] of 17.0 ± 1.5 pmol per 10^7 IRBC·min^−1.

In the case of `Cc1c(CCO)sc[n+]1CCCCCCCCCCCC[n+]1csc(CCO)c1C.[Br-].[Br-]` [albitiazolium, 3,3′-(dodecane-1,12-diyl)bis[5-(2-hydroxyethyl)-4-methyl-1,3-thiazol-3-ium] dibromide], the Albitiazolium entry rate (normal erythrocytes) is reported as “lower than 0.01 pmol per 10^7 RBC·min^−1”, the IC50 (choline kinase (CK) [3]) is reported as 1500 µM and the “Type of interaction with choline” value (P. falciparum 3D7 strain; combination with choline) is reported as “highly antagonized”. The “Type of interaction with ethanolamine” value (P. falciparum 3D7 strain; combination with ethanolamine) was “additive effect”, the “Type of interaction with serine” value (P. falciparum 3D7 strain; combination with serine) was “additive effect” and the “Decrease of antimalarial activity” value (P. falciparum 3D7 strain; in the presence of 6 mM choline) was 28 fold. For the same molecule, the “Concentration for complete inhibition of choline entry” value ([4]; 15 µM choline) was 10 µM, the Type of inhibition ([4]; inhibition of choline entry) was “Competitive” and the IC50 ([4]; read-out: IC50 on choline entry into parasites, 15 µM choline, 10 min) was 2.3 ± 0.2 µM. The Ki ([4]; read-out: Ki on choline entry into parasites, Lineweaver–Burk) was 0.53 µM, the “Accumulation in P. falciparum-IRBC” value (P. falciparum-IRBC; external concentration of 100 nM, unpublished observations) was 400 fold and the “cellular accumulation ratio (CAR)” value (P. falciparum-IRBC; infected erythrocytes at mature stages, in preparation) was about 400. The “Concentration effective at treating malaria in vitro” value [5] was about 10 nM, the “Vmax of albitiazolium entry” value ([6]; free parasites (Table 2)) was 6.1 ± 1.1 pmol per 10^7 cells·min^−1 and the “Vmax of albitiazolium entry” value ([6]; isolated parasites, 10 min, 37°C) was 6.1 ± 1.1 pmol per 10^7 parasites·min^−1. The IC100 ([7]; 0.5 h, read-out: Concentration for complete inhibition) was 100000 µM, the “Concentration for complete inhibition” value (choline kinase (CK) [8]) was 100 mM and the “Concentration from which choline entry is significantly inhibited” value ([9]; 15 µM choline) was 4 µM. For the same molecule, the “Concentration for complete inhibition of choline entry” value ([9]; 15 µM choline, not reached) was over 36 µM, the “Binding to human plasma-proteins” value (human plasma-proteins) was 33% and the “Concentration for complete inhibition of choline entry” value ([10]; 15 µM choline, 150 µM furosemide) was 12 µM. For the same molecule, the Type of inhibition ([10]; 150 µM furosemide) was “competitive inhibition”, the Ki ([10]; read-out: Ki on choline entry, 150 µM furosemide, Lineweaver–Burk) was 3.1 µM and the IC100 [11] was 100000 µM. The IC50 ([12]; Plasmodium falciparum, Erythrocyte, 3 h) was over 1000 µM, the IC50 ([12]; Plasmodium falciparum, Erythrocyte) was over 1000 µM and the IC50 ([12]; schizont stage, 2 µM [3H]-ethanolamine, 3 h) was over 1000 µM. For the same molecule, the IC50 ([12]; trophozoite stage, 2 µM [3H]-ethanolamine, 3 h) was over 1000 µM, the “Effect on ethanolamine incorporation” value ([12]; up to 10 µM) was “no significant effect” and the “Vmax of albitiazolium entry” value ([13]; 8 min, 37°C) was 47.9 ± 4.9 pmol per 10^7 IRBC·min^−1. For the same molecule, the Km ([13]; read-out: apparent Km of albitiazolium entry, 8 min, 37°C) was 20.6 ± 4.3 µM, the IC50 ([1]; 3 h, read-out: NA50, ring stage, [3H]-hypoxanthine, 3 h) was 240 µM and the IC50 ([1]; 3 h, read-out: NA50, schizont stage, [3H]-hypoxanthine, 3 h) was 160 µM. The IC50 ([1]; 3 h, read-out: NA50, trophozoite stage, [3H]-hypoxanthine, 3 h) was 340 µM, the IC50 ([1]; read-out: NA50, range over the three stages) was 160 to 340 µM and the “Concentrations affecting NA biosynthesis relative to PC50 values” ([1]; higher than the PC50, three stages) was 13- to 80 fold.

For `C[N+](C)(C)CCO` [choline], the “Vmax of parasite choline entry” value ([4]; Table 3) was 23.3 ± 4.5 pmol per 10^7 IRBC·min^−1, the “Vmax of choline entry” value ([4]; free parasites (Table 2)) was 23.3 ± 4.5 pmol per 10^7 cells·min^−1 and the Km ([4]; read-out: Km of choline entry, saponin-freed parasites, 10 min, 37°C) was 18.5 ± 3.3 µM. For the same molecule, the Type of inhibition [6] was “competitive inhibition”, the Type of inhibition ([6]; listed as Choline) was “Competitive” and the Ki ([6]; read-out: Ki on albitiazolium entry into parasites, Lineweaver–Burk) was 321 µM. The Vmax (choline kinase (CK) [8]) was 63.3 ± 11.6 pmol per 10^7 IRBC·min^−1, the Choline uptake rate ([9]; external concentration of 80 µM choline) was 1.5 pmol per 10^7 IRBC·min^−1 and the “Vmax of choline entry” value [14] was 0.43 ± 0.05 pmol per 10^7 RBC·min^−1. The Km ([14]; read-out: Km of choline entry, n= 4) was 12.2 ± 2.2 µM, the “Vmax of choline entry” value ([10]; IRBC with 150 µM furosemide) was 0.69 ± 0.23 pmol per 10^7 IRBC·min^−1 and 0.7 ± 0.2 pmol per 10^7 IRBC·min^−1 and the Km ([10]; read-out: Km of choline entry, IRBC with 150 µM furosemide) was 11 ± 2.4 µM.

`C[N+](C)(C)CCOP(=O)(O)O` [phosphocholine] showed a Vmax ([7]; CCT) of 5.2 ± 1.4 pmol per 10^7 IRBC·min^−1 and a Km ([7]; read-out: Km for choline-containing substrate, CCT, saturating CTP) of 511 ± 24.8 µM.

B1: choline kinase (CK) (Plasmodium falciparum 3D7) (protein)
chain: MESKICDPIGLDKNKFRKVEEENEENSKIVENGQMTYNDDLEMFTTIQLNQEIDIRKNPFPLHMINQKNDIPLCAQEFSKLTDPLYIKKICLEKVHDWSRCNEDDVCVNQILSGLTNQLFEVSIKEDTAIEYRITRRHVLFRIYGKDVDALYNPLSEFEVYKTMSKYRIAPLLLNTFDGGRIEEWLYGDPLSIDDLKNKSILVGIANVLGKFHTLSRKRHLPEHWDKTPCVFKMMDRWRLAVSNYKNLDKVTLDINKYIQESHKFLKFIKIYTQIENIANDIVFCHNDLQENNIMNTNKCLRLIDFEYSGYNFLSADIANFFIETTIDYSYNAYPFFIINKKNYISYESRILFVTTYLSKYLDDSTAASDQDIIDQFLEAIEVQALGLHLIWAFWSIIRGYQTKSYNEFDFFLYAKERLKMYDEQKQYLMSKNIIKDYDD
Molecule B1 has a Km [15] of 31.2 ± 4.1 µM.
